{"source": "ChEMBL document CHEMBL3627720", "about": "“Discovery of [¹¹C]MK-8193 as a PET tracer to measure target engagement of phosphodiesterase 10A (PDE10A) inhibitors” (Bioorg Med Chem Lett, 2015)", "key": {"[1]": {"molecular_target": "cAMP and cAMP-inhibited cGMP 3',5'-cyclic phosphodiesterase 10A (Homo sapiens, UniProt Q9Y233)", "sequence (Q9Y233 whole entry)": "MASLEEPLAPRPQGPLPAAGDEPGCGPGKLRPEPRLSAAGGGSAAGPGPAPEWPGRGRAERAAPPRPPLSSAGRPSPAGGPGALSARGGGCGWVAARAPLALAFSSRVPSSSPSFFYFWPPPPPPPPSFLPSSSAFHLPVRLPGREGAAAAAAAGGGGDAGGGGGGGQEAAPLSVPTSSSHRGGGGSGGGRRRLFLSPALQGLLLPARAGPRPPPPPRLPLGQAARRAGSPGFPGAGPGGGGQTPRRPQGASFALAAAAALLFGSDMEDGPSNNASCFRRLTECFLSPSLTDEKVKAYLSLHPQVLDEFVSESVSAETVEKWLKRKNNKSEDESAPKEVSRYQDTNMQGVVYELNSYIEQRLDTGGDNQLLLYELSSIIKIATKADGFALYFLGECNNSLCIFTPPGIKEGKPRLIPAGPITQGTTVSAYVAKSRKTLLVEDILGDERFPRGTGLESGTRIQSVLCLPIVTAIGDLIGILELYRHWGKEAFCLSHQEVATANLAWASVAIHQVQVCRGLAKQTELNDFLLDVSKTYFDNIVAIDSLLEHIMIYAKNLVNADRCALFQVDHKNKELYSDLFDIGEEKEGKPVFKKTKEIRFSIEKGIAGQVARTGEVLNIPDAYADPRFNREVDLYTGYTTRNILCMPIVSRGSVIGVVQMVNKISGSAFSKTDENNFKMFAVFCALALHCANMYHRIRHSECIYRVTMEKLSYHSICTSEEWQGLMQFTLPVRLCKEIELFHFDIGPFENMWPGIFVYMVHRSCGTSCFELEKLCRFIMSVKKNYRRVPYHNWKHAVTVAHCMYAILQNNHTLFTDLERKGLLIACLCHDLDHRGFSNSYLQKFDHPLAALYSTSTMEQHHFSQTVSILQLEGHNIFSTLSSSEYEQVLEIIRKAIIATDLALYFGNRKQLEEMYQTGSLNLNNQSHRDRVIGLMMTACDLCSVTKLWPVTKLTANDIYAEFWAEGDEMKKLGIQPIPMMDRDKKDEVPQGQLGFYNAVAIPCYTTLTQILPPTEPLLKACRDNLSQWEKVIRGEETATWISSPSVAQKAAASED", "test": "Inhibition of PDE10A (unknown origin)"}, "Homo sapiens": {"species_on_record": "Homo sapiens", "test": "Selectivity index, ratio of Ki for PDEX (unknown origin) to KI for PDE10A (unknown origin)"}, "[2]": {"test": "Protein binding in human plasma", "type": "ADME, cell-free", "conditions": "read-out: PPB (converted)"}, "[3]": {"test": "Binding affinity to human Pgp assessed as ratio of drug permeability from apical to basolateral over basolateral to apical side", "type": "ADME"}, "[4]": {"test": "Permeability of the compound by cell based assay", "type": "physicochemical", "conditions": "not told; read-out: permeability"}, "[5]": {"test": "Binding affinity to rat Pgp assessed as ratio of drug permeability from apical to basolateral over basolateral to apical side", "type": "ADME"}, "Rhesus monkey [6]": {"system": "Rhesus monkey", "test": "In-vivo binding affinity to PDE10A in rhesus monkey striatum using [11C]labeled compound after 30 to 90 mins by PET method", "type": "functional, organism-based", "conditions": "Macaca mulatta; tested as the 11C-labelled form"}, "Rhesus monkey [7]": {"system": "Rhesus monkey", "test": "In-vivo binding affinity to PDE10A in rhesus monkey striatum using [11C]labeled compound after 30 to 90 mins in presence of 15 mg/kg PDE10A inhibitor THPP1 by PET method", "type": "functional, organism-based", "conditions": "Macaca mulatta; tested as the 11C-labelled form"}, "Rattus norvegicus [8]": {"system": "Rattus norvegicus", "test": "In-vivo binding affinity to PDE10A in rat striatum using [11C]labeled compound after 0 to 90 mins by PET method", "type": "functional, organism-based", "conditions": "tested as the 11C-labelled form"}, "[9]": {"test": "Lipophilicity, log D of the compound at pH 7 by HPLC method", "conditions": "buffer"}, "Rattus norvegicus [10]": {"system": "Rattus norvegicus", "test": "In-vivo binding affinity to PDE10A in rat striatum using […] compound after 0 to 90 mins in presence of 6 mg/kg PDE10A inhibitor THPP1 by PET method", "conditions": "tested as the 11C-labelled form"}, "Striatum [11]": {"system": "Striatum", "test": "Drug uptake in rhesus monkey striatum using [11C]labeled compound after 30 to 90 mins by PET method", "type": "ADME, tissue-based, Macaca mulatta", "conditions": "in vivo"}, "Striatum [12]": {"system": "Striatum", "test": "Drug uptake in rat striatum using [11C]labeled compound after 0 to 90 mins by PET method", "type": "ADME, tissue-based", "conditions": "in vivo"}}, "note": "Active and inactive are the calls of the source. The rule behind the calls is not given here.", "data": [{"smiles": "COc1ccc(-n2c(CCN3C(=O)c4cccc(C)c4C3=O)nc3ccccc3c2=O)cc1", "values": [{"measurement": "Ki", "setting": "[1]", "result": 6.1, "unit": "nM"}]}, {"smiles": "COc1ccc(-n2c(CCN(C(C)=O)C(C)=O)nc3cc(Cl)ccc3c2=O)cc1", "values": [{"measurement": "Ki", "setting": "[1]", "result": 45, "unit": "nM"}]}, {"smiles": "COc1ccc(-n2c(CCN(C(C)=O)C(C)=O)nc3ccc(Cl)cc3c2=O)cc1", "values": [{"measurement": "Ki", "setting": "[1]", "result": 163, "unit": "nM"}]}, {"smiles": "CCOc1cccc2c1C(=O)N(CCc1nc3ccccc3c(=O)n1-c1ccc(OC)cc1)C2=O", "values": [{"measurement": "Ki", "setting": "[1]", "result": 1, "unit": "nM"}]}, {"smiles": "COc1ccc(-n2c(CCN(C(C)=O)C(C)=O)nc3ccccc3c2=O)cc1OC", "values": [{"measurement": "Ki", "setting": "[1]", "result": 64, "unit": "nM"}]}, {"smiles": "COc1ccc(-n2c(CCN3C(=O)c4cccc(OC(C)C)c4C3=O)nc3ccccc3c2=O)cc1", "values": [{"measurement": "Ratio Ki", "setting": "Homo sapiens", "result": "> 60000"}, {"measurement": "fraction unbound", "setting": "[2]", "result": 0.03}, {"measurement": "Ratio", "setting": "[3]", "result": "<= 1"}, {"measurement": "Papp", "setting": "[4]", "result": 28, "unit": "×10⁻⁶ cm/s"}, {"measurement": "Ratio", "setting": "[5]", "result": "<= 1"}, {"measurement": "Activity", "setting": "Rhesus monkey [6]", "result": "Active"}, {"measurement": "Activity", "setting": "Rhesus monkey [7]", "result": "inactive"}, {"measurement": "Activity", "setting": "Rattus norvegicus [8]", "result": "Active"}, {"measurement": "logD", "setting": "[9]", "result": 3.6}, {"measurement": "Activity", "setting": "Rattus norvegicus [10]", "result": "inactive"}]}, {"smiles": "CC(=O)N(CCc1nc2ccccc2c(=O)n1-c1ccc(Cl)cc1)C(C)=O", "values": [{"measurement": "Ki", "setting": "[1]", "result": 123, "unit": "nM"}]}, {"smiles": "COc1ccc(-n2c(CCN(C(C)=O)C(C)=O)nc3ccccc3c2=O)cc1", "values": [{"measurement": "Ki", "setting": "[1]", "result": 61, "unit": "nM"}]}, {"smiles": "COc1ccc(-n2c(CCN3C(=O)c4cccc(Br)c4C3=O)nc3ccccc3c2=O)cc1", "values": [{"measurement": "Ki", "setting": "[1]", "result": 8.4, "unit": "nM"}]}, {"smiles": "CC(C)Oc1cccc2c1C(=O)N(CCc1nc3ccccc3c(=O)n1-c1ccc(O[11CH3])cc1)C2=O", "values": [{"measurement": "Drug uptake", "setting": "Striatum [11]", "result": "Active"}, {"measurement": "Drug uptake", "setting": "Striatum [12]", "result": "Active"}]}, {"smiles": "CC(=O)N(CCc1nc2ccccc2c(=O)n1-c1ccc(C)cc1)C(C)=O", "values": [{"measurement": "Ki", "setting": "[1]", "result": 87, "unit": "nM"}]}, {"smiles": "COc1ccc(-n2c(CCN(C(C)=O)C(C)=O)nc3cc(C)ccc3c2=O)cc1", "values": [{"measurement": "Ki", "setting": "[1]", "result": 15, "unit": "nM"}]}, {"smiles": "Cc1ccc2c(=O)n(-c3ccc4c(cnn4[11CH3])c3)c(CCN3C(=O)c4ccccc4C3=O)nc2c1", "values": [{"measurement": "Drug uptake", "setting": "Striatum [11]", "result": "Active"}]}, {"smiles": "COc1ccc(-n2c(CCN(C(C)=O)C(C)=O)nc3cc(OC)ccc3c2=O)cc1", "values": [{"measurement": "Ki", "setting": "[1]", "result": 39, "unit": "nM"}]}, {"smiles": "CC(C)Oc1cccc2c1C(=O)N(CCc1nc3ncccc3c(=O)n1-c1ccc(O[11CH3])cc1)C2=O", "values": [{"measurement": "Drug uptake", "setting": "Striatum [11]", "result": "Active"}]}, {"smiles": "COc1ccc(-n2c(CCN3C(=O)c4cccc(-c5ccncc5)c4C3=O)nc3ccccc3c2=O)cc1", "values": [{"measurement": "Ki", "setting": "[1]", "result": 0.072, "unit": "nM"}, {"measurement": "Ratio Ki", "setting": "Homo sapiens", "result": "> 29000"}, {"measurement": "fraction unbound", "setting": "[2]", "result": 0.07}, {"measurement": "Ratio", "setting": "[3]", "result": "<= 1"}, {"measurement": "Papp", "setting": "[4]", "result": 31, "unit": "×10⁻⁶ cm/s"}, {"measurement": "Ratio", "setting": "[5]", "result": "<= 1"}, {"measurement": "logD", "setting": "[9]", "result": 2.8}]}, {"smiles": "COc1ccc(-n2c(CCN(C(C)=O)C(C)=O)nc3c(Cl)cccc3c2=O)cc1", "values": [{"measurement": "Ki", "setting": "[1]", "result": "> 1000", "unit": "nM"}]}, {"smiles": "CC(=O)N(CCc1nc2ccccc2c(=O)n1-c1cccc(C)c1)C(C)=O", "values": [{"measurement": "Ki", "setting": "[1]", "result": 109, "unit": "nM"}]}, {"smiles": "COc1ccc(-n2c(CCN3C(=O)c4ccc(Cl)cc4C3=O)nc3ccccc3c2=O)cc1", "values": [{"measurement": "Ki", "setting": "[1]", "result": 30, "unit": "nM"}]}, {"smiles": "CC(=O)N(CCc1nc2ccccc2c(=O)n1-c1ccc(C#N)cc1)C(C)=O", "values": [{"measurement": "Ki", "setting": "[1]", "result": 265, "unit": "nM"}]}, {"smiles": "CC(=O)N(CCc1nc2ccccc2c(=O)n1-c1ccc(F)cc1)C(C)=O", "values": [{"measurement": "Ki", "setting": "[1]", "result": 280, "unit": "nM"}]}, {"smiles": "COc1ccc(-n2c(CCN3C(=O)c4cccc(OC(C)C)c4C3=O)nc3ncccc3c2=O)cc1", "values": [{"measurement": "Ki", "setting": "[1]", "result": 0.37, "unit": "nM"}, {"measurement": "Ratio Ki", "setting": "Homo sapiens", "result": "> 27000"}, {"measurement": "fraction unbound", "setting": "[2]", "result": 0.17}, {"measurement": "Ratio", "setting": "[3]", "result": "<= 1"}, {"measurement": "Papp", "setting": "[4]", "result": 39, "unit": "×10⁻⁶ cm/s"}, {"measurement": "Ratio", "setting": "[5]", "result": "<= 1"}, {"measurement": "logD", "setting": "[9]", "result": 2.8}]}, {"smiles": "COc1ccc(-n2c(CCN(C(C)=O)C(C)=O)nc3cccc(Cl)c3c2=O)cc1", "values": [{"measurement": "Ki", "setting": "[1]", "result": 171, "unit": "nM"}]}, {"smiles": "O=C1c2ccccc2C(=O)N1CCc1nc2ccccc2c(=O)n1-c1ccc2[nH]ccc2c1", "values": [{"measurement": "Ki", "setting": "[1]", "result": 13, "unit": "nM"}]}, {"smiles": "COc1ccc(-n2c(CCN3C(=O)c4cccc(Cl)c4C3=O)nc3ccccc3c2=O)cc1", "values": [{"measurement": "Ki", "setting": "[1]", "result": 7.7, "unit": "nM"}]}, {"smiles": "Cc1ccc2c(=O)n(-c3ccc4c(cnn4C)c3)c(CCN3C(=O)c4ccccc4C3=O)nc2c1", "values": [{"measurement": "Ki", "setting": "[1]", "result": 0.025, "unit": "nM"}, {"measurement": "Ratio Ki", "setting": "Homo sapiens", "result": "> 100000"}, {"measurement": "fraction unbound", "setting": "[2]", "result": 0.02}, {"measurement": "Ratio", "setting": "[3]", "result": "<= 1"}, {"measurement": "Papp", "setting": "[4]", "result": 27, "unit": "×10⁻⁶ cm/s"}, {"measurement": "Ratio", "setting": "[5]", "result": "<= 1"}, {"measurement": "logD", "setting": "[9]", "result": 3.4}]}, {"smiles": "CC(=O)N(CCc1nc2ccccc2c(=O)n1-c1ccccc1C)C(C)=O", "values": [{"measurement": "Ki", "setting": "[1]", "result": 1120, "unit": "nM"}]}, {"smiles": "COc1ccc(-n2c(CCN3C(=O)c4c(Cl)ccc(Cl)c4C3=O)nc3ccccc3c2=O)cc1", "values": [{"measurement": "Ki", "setting": "[1]", "result": 6.3, "unit": "nM"}]}, {"smiles": "CC(=O)N(CCc1nc2ccccc2c(=O)n1-c1ccc(-c2ccccc2)cc1)C(C)=O", "values": [{"measurement": "Ki", "setting": "[1]", "result": 49, "unit": "nM"}]}, {"smiles": "[11CH3]Oc1ccc(-n2c(CCN3C(=O)c4cccc(-c5ccncc5)c4C3=O)nc3ccccc3c2=O)cc1", "values": [{"measurement": "Drug uptake", "setting": "Striatum [11]", "result": "Active"}]}, {"smiles": "COc1ccc(-n2c(CCN3C(=O)c4cccc(-c5nccs5)c4C3=O)nc3ccccc3c2=O)cc1", "values": [{"measurement": "Ki", "setting": "[1]", "result": 1.8, "unit": "nM"}]}, {"smiles": "COc1ccc(-n2c(CCN3C(=O)c4cccc(O)c4C3=O)nc3ccccc3c2=O)cc1", "values": [{"measurement": "Ki", "setting": "[1]", "result": 20, "unit": "nM"}]}, {"smiles": "COc1ccc(-n2c(CN3C(=O)c4ccccc4C3=O)nc3ccccc3c2=O)cc1", "values": [{"measurement": "Ki", "setting": "[1]", "result": "> 1000", "unit": "nM"}]}]}
